According to publication PMC6269904, “Two New Monoterpene Glycosides from Qing Shan Lu Shui Tea with Inhibitory Effects on Leukocyte-Type 12-Lipoxygenase Activity” (Molecules, 2013):

How the values were obtained:
[1] = biological target: T1, leukocyte-type 12-lipoxygenase (leukocyte-type 12-LOX), porcine (Sus scrofa, UniProt P16469); experiment: RP-HPLC of HETE products after reduction; format: biochemical
T1 construct: gene ALOX15; partially purified from J774A.1 cells overexpressing the porcine enzyme
T1 sequence (P16469 1-663): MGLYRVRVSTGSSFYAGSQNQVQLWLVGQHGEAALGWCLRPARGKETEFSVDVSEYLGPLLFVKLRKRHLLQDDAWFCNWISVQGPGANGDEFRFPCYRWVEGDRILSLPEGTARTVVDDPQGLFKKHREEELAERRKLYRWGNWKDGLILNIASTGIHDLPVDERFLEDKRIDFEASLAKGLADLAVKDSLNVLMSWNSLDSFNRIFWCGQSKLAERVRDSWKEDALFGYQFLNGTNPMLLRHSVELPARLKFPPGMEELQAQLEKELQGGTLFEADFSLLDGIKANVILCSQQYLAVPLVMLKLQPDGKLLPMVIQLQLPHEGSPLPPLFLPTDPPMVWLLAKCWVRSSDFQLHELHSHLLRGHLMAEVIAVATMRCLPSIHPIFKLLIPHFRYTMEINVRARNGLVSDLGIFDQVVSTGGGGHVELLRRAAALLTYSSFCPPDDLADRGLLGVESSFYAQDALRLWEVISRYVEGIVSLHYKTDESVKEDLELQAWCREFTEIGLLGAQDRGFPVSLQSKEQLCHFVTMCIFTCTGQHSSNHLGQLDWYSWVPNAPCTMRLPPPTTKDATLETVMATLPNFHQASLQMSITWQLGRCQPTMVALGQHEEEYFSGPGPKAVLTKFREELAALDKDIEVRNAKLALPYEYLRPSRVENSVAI

[2] = biological target: T1, leukocyte-type 12-lipoxygenase (leukocyte-type 12-LOX), porcine; experiment: RP-HPLC of HETE products ([…] nm) after reduction; format: biochemical; conditions: 25 μM arachidonic acid, 100 mM Tris-HCl pH 7.4, 30 °C, 5 min preincubation; partially purified enzyme

Compound | IC50 [1] [nM] | no inhibition [2]
C/C(=C\CO[C@@H]1O[C@H](CO)[C@@H](OC(=O)/C=C/c2ccc(O)cc2)[C@H](O[C@@H]2O[C@@H](C)[C@H](O)[C@@H](O)[C@H]2O)[C@H]1O)C/C=C/C(C)(C)OO [compound 1, (2E,5E)-7-hydroperoxy-3,7-dimethyl-2,5-octadienyl-O-(α-L-rhamnopyranosyl)-(1″→3′)-(4′″-O-trans-p-coumaroyl)-β-D-glucopyranoside] | 1700 | –
C/C(=C\CO[C@@H]1O[C@H](CO)[C@@H](OC(=O)/C=C\c2ccc(O)cc2)[C@H](O[C@@H]2O[C@@H](C)[C@H](O)[C@@H](O)[C@H]2O)[C@H]1O)C/C=C/C(C)(C)OO [compound 2, (2E,5E)-7-hydroperoxy-3,7-dimethyl-2,5-octadienyl-O-(α-L-rhamnopyranosyl)-(1′′→3′)-(4′′′-O-cis-p-coumaroyl)-β-D-glucopyranoside] | 700 | –
O=C(O)/C=C/c1ccc(O)cc1 [p-coumaric acid] | – | showed no inhibition on leukocyte-type 12-LOX activity
